According to patent publication US20030235577A1, “Methods and compositions for preventing and treating microbial infections” (priority 2002, published 2003):

Key:
S. aureus [1] = assay: Peritonitis model, peptide injected intraperitoneally after S. aureus; assay type: in vivo, C57/B16 mice; details: 72 hour time point, peptide 1 mg intraperitoneally; for survival: S. aureus 6×10^7 CFU
Protocol: Bacterial preparation: Staphylococcus aureus a clinical isolate was grown in tryptic soy broth for 18 hours at 37° C. An aliquot was placed in fresh media and grown until mid-log phase of growth. S. aureus was centrifuged and washed in sterile PBS and diluted. Bacteria concentration of O.D.540 of 0.9, corresponding to a concentration of 6×10^7 CFU/ml was used for inoculation.
Peptide preparation: Murine MMP-12 C-terminal peptide […] (SEQ ID NO:37; 333-352) and Human MMP-12 C-terminal peptide […] (SEQ ID NO:36; 341-359) and a human MMP-12 peptide with a single nucleotide polymorphism: […] (SEQ ID NO:55) were solubilized in sterile H2O at a concentration of 4 mg/ml.
Peritonitis model: C57/B16 mice received intraperitoneal injection of bacteria in a total volume of 1 ml (6×10^7 CFU). Peptides were intraperitoneally injected immediately after at a dose of 1 mg. […] The control mice received the same intraperitoneal injection of bacteria as in the test groups and then received an injection of vehicle with no peptide.

S aureus = assay: Dose response of S. aureus to MMP-12 C-terminal peptides; assay type: cell-based, Staphylococcus aureus; details: various concentrations of peptide, 100 minutes
Protocol: Dose response: samples of S aureus were incubated with various concentrations of murine peptide (SEQ ID NO: 37), human peptide (SEQ ID NO: 36) and Human SNP peptide (SEQ ID NO:55). The human SNP peptide (SEQ ID NO:55) has a single nucleotide change from the sequence of SEQ ID NO 36. The peptide SEQ ID NO:36 has the amino acid sequence: […] and the peptide SEQ ID NO:55 has the amino acid sequence […]. The amount of bacteria remaining at various the various concentrations was determined for each group of a 100 minute time course.

S. aureus [2] = assay: In vitro antimicrobial activity, co-incubation with S. aureus in 5% LB and CFU count; assay type: cell-based, Staphylococcus aureus; details: S. aureus, 5% LB culture, similar doses and conditions as full-length MMP-12
Protocol: S. aureus co-culture was incubated for 60 minutes with doses of MMP-12 C-terminal. Aliquots of cultures were diluted in PBS at 1:10 and 1:100 dilution. Dilutions were plated on LB agar plates for 18 hour incubation at 37° C. Controls consisted of column fractions that lacked MMP-12 carboxy terminal determined by immunoblotting.
MMP-12's mechanism of action as a host defense protein was investigated. To test for direct activity, functional full-length recombinant human MMP-12 was incubated with S. aureus in a 5% LB culture. […] MMP-12 enzymatic activity was not required for this antimicrobial effect.
Mid-log phase bacteria (10^5) were incubated in the absence or presence of purified MMP-12 C-terminal in a total volume of 100 μl of 10 mmol/L sodium phosphate containing 5% (vol/vol) TSB at 37° C. for 1 hour. Serial dilutions were then spread on agarose plates and the number of CFUs were determined after overnight incubation.

S. aureus [3] = assay: Propidium iodide exclusion assay with fluorescence microscopy; assay type: cell-based, Staphylococcus aureus; details: 20 μg/ml, 30 minutes
Protocol: Recombinant segments of MMP-12 C-terminal were generated each covering one third of the C-terminal. Segments were then tested for anti-microbial activity against S. aureus. […] We hypothesized that in this region there was a secondary structure that had potential antimicrobial structure and properties consistent with the structure in cathelicidins. A predicted amphipathic and alpha helical structure was found in this region, which was conserved in the MMP-12 C-terminal domains from rabbit, rat, mouse and human. […] These studies have been repeated n>10 with similar results. FIG. 10 illustrates thae effect of MMP-12 C-terminal domain on cell survival.

Substance | amount of S. aureus remaining (S aureus) | direct antimicrobial activity (S. aureus [2]) | further results
ARNQVFLFKDDKYWLISNLR (listed as Homo sapiens) [Human MMP-12 peptide] | zero S. aureus at most concentrations |  | activity (clinical observation) (S. aureus [1]): normal activity; survival (S. aureus [1]): 100%
ARNQVFLFKDDKYWLISSLR (listed as Homo sapiens) [Human SNP] | zero S aureus at all concentrations |  | 
MMP-3: commercially available full length pro-MMP 3 [reference compound] |  | did not demonstrate this direct antimicrobial activity | 
MMP-7: commercially available full length pro-MMP 7 [reference compound] |  | did not demonstrate this direct antimicrobial activity | 
MMP-8: commercially available full length pro-MMP 8 [reference compound] |  | did not demonstrate this direct antimicrobial activity | 
SRDLMFIFRGRKFWALNGYD [MMP-13 peptide, reference compound] |  |  | bacterial death, uptake of membrane impermeant dye (S. aureus [3]): little dye uptake
SRNQLFLFKDEKYWLINNLV (listed as Mus musculus) [Murine MMP-12 peptide] | higher at each concentration |  | activity (clinical observation) (S. aureus [1]): decrease activity; survival (S. aureus [1]): 75%; bacterial death, uptake of membrane impermeant dye (S. aureus [3]): clumping and increased uptake of membrane impermeant dye
